Reference: patent US20090105149A1, “Compounds comprising lpa” (ENKAM PHARMACEUTICALS A/S, priority 2003, published 2009)
Marks after values point to notes of the source that are not given here.

Experiments:
[1] = system: cerebellar granule neurons (CGN); test: Neurite outgrowth, cerebellar granule neurons; type: cell-based, rat; details: 24 h
Description: The cultures were subsequently immunostained for tyrosine hydroxylase. Hippocampal neurons and CGN were plated at a density of 10,000 cells/cm^2 on 8-well permanox chamber slides and incubated for 24 hours in the presence of various concentrations of FGLd. Subsequently the neurons were immunostained for GAP-43. Results from at least five independent experiments for each neuronal culture are shown as percentage ±SEM with the untreated controls set at 100%. *p<0.05, **p<0.01, ***p<0.001 when compared to the controls.
Peptide solutions without or with inhibitors of various signal transduction pathways were added to a total volume of 300 μl/cm^2, and the slides were incubated at 37° C. After 24 hours, the neurons were fixed with 4% (v/v) formaldehyde for 20 minutes and thereafter immunostained using primary rabbit antibodies against GAP-43 and Alexa Fluor secondary goat anti-rabbit antibodies. Images of at least 200 neurons for each group in each individual experiment were obtained systematically by using computer assisted fluorescence microscopy as previously described (Rønn et al., 2000 op. cit.). Briefly, a Nikon Diaphot inverted microscope with a Nikon Plan 20× objective (Nikon, Tokyo, Japan) coupled to a video camera (Grundig Electronics, Germany) was used for recordings. The same software package as described above for the dopaminergic neurite outgrowth assay was used to process the recorded images.

[2] = system: hippocampal neurons; test: FM 1-43 destaining (presynaptic vesicle turnover) in hippocampal neurons; type: cell-based, rat
Description: The values were compared using an unpaired t-test. *p=0.04 (1 h) and **p=0.0032 (48 h). FGLcontrol is a control peptide consisting the sequence […] (SEQ ID NO: 147).
The effects of FGLd on vesicle turnover was estimated in primary cultures of hippocampal neurons from embryonic rats (E19). The cultures were prepared as above. Following 13-16 days in vitro, FGLd was added to the cultures and incubated for 1, 24 or 48 hours. After 48 hours of incubation, the FGFR-inhibitor (SU 5402) was added simultaneously with FGLd to some of the cultures.
After treatment with FGLd the neurons were labeled with the fluorescent membrane probe FM 1-43 as described by Kiryushko et al (2003) J Biol. Chem. 278:12325-34. The rate of FM 1-43 release (destaining of cells) evoked by depolarisation with 90 mM potassium was then evaluated by a time-lapse image acquisition using the Radiance 2000 scanning system and a Nikon eclipse TE200 confocal microscopy.

[3] = system: organotypic hippocampal neuronal slice cultures (OHSC); test: OGD, propidium iodide staining of OHSC; type: cell-based, rat
Text: In the present study it was investigated the effect of the FGL peptide on synaptic plasticity, neuronal function and vulnerability following oxygen and glucose deprivation (OGD) in organotypic hippocampal neuronal slice cultures (OHSC) from 7-day-old Wistar rats according to method of Stoppini et al. (1991) Neurosci Methods. 37:173-82 and primary cultures of dissociated hippocampal neurons from 1-day-old rats according to method of Maar et al. (1997) J Neurosci Res. 47:163-72. Primary cell cultures were maintained for 11-12 days and OHSC for 12-14 days prior to adding FGLd.
The primary cell cultures and OHSC were exposed to OGD for 10 and 20 minutes. Following OGD, the cultures were again supplied with oxygen and glucose and analysed at 1, 4 or 24 hour time point after introduction of OGD exposure. FGLd (or the control peptide FGLc) was added 24 hr before, immediately, or 1 hr or 24 hr after OGD. When administered prior to OGD, FGLd was removed from the medium when introducing OGD. In some cases, the slice cultures were treated with FGLd only at 4 hr after OGD. In addition, the FGFR inhibitor, SU5402 (25 μM), was added together with FGLd in some of the set-ups.
In hippocampal neuronal cultures, FM 1-43 staining was used to evaluate pre-synaptic function (described above). Cell viability in both primary cell cultures and OHSC was measured using the […] [3-(4,5-dimethylthiazol-2-yl)-2,5-diphenyltetrazolium bromide] assay according to Malich et al, (1997) Toxicology. 124:179-92. In, addition, cell viability in OHSC was measured using propidium iodide (PI) staining according to Laake et al. (1999) Brain Res Brain Res Protoc. 4:173-84.

[4] = system: rats treated with (25-35) β-amyloid fragment; test: Amyloid burden in brain sections, (25-35) β-amyloid fragment rat model; type: in vivo; details: Study 2; sub-occipital 5 μg, days 7, 10, 13; β-amyloid only = 100%
Description: The number of animals in the groups varied from 3 to 13. Results were analysed using one-way ANOVA (F(2,18)=5.2, p=0.016), and significance of results was contingent on achieving a p-value of less than 0.05 (*p<0.05 and **p<0.01), when compared with the A-β/V group (Newman-Keuls posttest).
The number of animals in the groups varied from 2 to 12. Results were analysed using one-way ANOVA (F(2,15)=9.54, p=0.002), and significance of results was contingent on achieving a p-value of less than 0.05 (***p<0.001), when compared with the A-β/V group (Newman-Keuls posttest).
The number of animals per group varied from 3 to 13. The results were analysed using one-way ANOVA (F(2,12)=18.6, P=0.002) and significance of results was contingent on achieving a p-value of less than 0.05 (***p<0.001) when compared with the A-β/V group (Bonferroni's multiple comparison test).
The number of animals per group varied from 3 to 5. The results were analysed using one-way ANOVA (F(2,9)=10.6, P=0.004) and significance of results was contingent on achieving a p-value of less than 0.05 (***p<0.001) when compared with the A-β/V group (Newman-Keuls post-test).
Behaviour of animals was evaluated using the Social Recognition test, the Open Field test or the Light-dark Discriminating γ-maze. […] In addition, the number of neurons in selected areas of brain-sections was calculated using a stereological approach.

[5] = system: rats; test: Open Field test in normal rats; type: in vivo, rat; details: additional experiments

FGLd: MAP-type dendrimer of FGL; dendrimeric tetramer of the FGL peptide (EVYVVAENQQGKSKA)
Effect on Neurite Length (Percent Increase vs. Control) ([1]; CGN PND 2-4, 9 μg/mL): 24%** | Effect on Neurite Length (Percent Increase vs. Control) ([1]; CGN PND 5-8, 3 μg/mL): 30% | Effect on Neurite Length (Percent Increase vs. Control) ([1]; CGN PND 5-8, 9 μg/mL): 93% | Effect on Neurite Length (Percent Increase vs. Control) ([1]; CGN PND 5-8, 10 μg/mL): 37% | Effect on Neurite Length (Percent Increase vs. Control) ([1]; CGN PND 5-8, 25 μg/mL): 79% | Effect on Neurite Length (Percent Increase vs. Control) ([1]; CGN PND 5-8, 27 μg/mL): 121% | Effect on Neurite Length (Percent Increase vs. Control) ([1]; CGN PND 5-8, 50 μg/mL): 179% | Effect on Neurite Length (Percent Increase vs. Control) ([1]; CGN PND 5-8, 100 μg/mL): 96% | maximal stimulation of neurite outgrowth, CGN ([1]; at 50 μg/ml, untreated control = 100%): 255% | rate of FM 1-43 unloading ([2]; 5 μg/ml for any time period): Neither treatment with 5 μg/ml FGLd for any time period, nor the treatment with 20 μg/ml for 24 hours had any effect | rate of FM 1-43 destaining ([2]; 20 μg/ml for 1 h, control 0.008): 0.016 s⁻¹ | rate of FM 1-43 destaining ([2]; 20 μg/ml for 24 h): did not result in a significant effect | rate of FM 1-43 destaining ([2]; 20 μg/ml for 48 h, control 0.013): 0.028 s⁻¹ | PI staining (cell damage) after 10 minutes of OGD ([3]; slices pre-treated for 24 hours): almost completely abolished | PI staining (cell damage) after 10 minutes of OGD ([3]; treated immediately after OGD): Cell damage was also avoided | PI staining (cell damage) after 10 minutes of OGD ([3]; treatment delayed until 4 hours after OGD): not if FGLd treatment was delayed until 4 hours after OGD | amyloid burden in the CA3 area of the hippocampus [4]: 44% | amyloid burden in the cingulate cortex [4]: 42% | emotional or locomotor behaviour [5]: did not influence emotional or locomotor behaviour
